# From patent US8940885B2, “Cytotoxic nucleotides for targeted therapeutics” (Wake Forest University Health Sciences, priority 2006, dated 2015)
# Assays:
# [1] = test system: DU145 prostate cancer cells
# PC3 cells = test: Cytotoxicity of FdUMP[10], laboratory studies and NCI 60 cell line screen; format: cell-based, human
# [2] = test system: PC3 prostate cancer cells
# LNCaP cells = test: Cytotoxicity of FdUMP[10], laboratory studies and NCI 60 cell line screen; format: cell-based, human
# DU145 PC cells = test: Cytotoxicity of FdUMP[10], laboratory studies and NCI 60 cell line screen; format: cell-based
# colon cancer cells = test: Uptake of FdUMP[10] multimer in other cancer cells; format: cell-based; details: other types of cancer cells (e.g. colon cancer)
# prostate cancer cells [3] = test system: prostate cancer cells
# [4] = test system: PC cells and normal prostatic epithelial cells; test: Trypan blue exclusion assays; format: cell-based, human
# Description: The cytotoxicity of the candidate modified aptamers is also evaluated with regard to prostate cells that have been obtained from normal prostate tissue derived from radical prostatectomies. A procedure for establishing primary human epithelial cell cultures from the disease-free regions of the tissue (based on histology) has been described (Peehl et al., In Vitro Cell Dev. Biol. 22: 90 (1986); Peehl et al., In Vitro Cell Dev. Biol. 24: 530-536 (1988); Barreto et al., Cancer Epidemiol. Biomarkers Prey. 9: 265-270 (2000). The cultures are grown in MCDB 105 medium (Sigma, St. Louis, Mo.) that has been supplemented with growth factors and hormones as described previously (Peehl et al., In Vitro Cell Dev Biol 22: 90 (1986)). Trypan blue exclusion is used as a marker of viable cells. The data are analyzed to identify those candidate modified aptamers sequences that are highly efficient at killing PC cells that express xPSM, but that are not cytotoxic towards normal prostate cells. Candidate modified aptamers that display the greatest differential cytotoxicity are further developed as drugs for the treatment of human PC.
# (but not 5FU) is currently under investigation.
# prostate cancer cells [5] = test system: prostate cancer cells; remark: listed apart in the source
# [6] = biological target: T1, extracellular domain of PSMA (xPSM) (Homo sapiens, UniProt Q04609); details: cited from earlier work
# T1 construct: express the 706 amino acids comprising the extracellular domain of PSMA from Sf-9 (insect) cells using baculovirus; made in house; host or cells: Sf-9 insect cells, baculovirus (pBacGus3 vector); cDNA from LNCaP cells
# [7] = UV thermal melt (hyperchromicity); format: physicochemical
# Description: The structural characteristics of the parent aptamer and modified aptamers were determined using circular dichroism (CD) spectroscopy and ultraviolet (UV) hyperchromicity measurements. The data for the CD spectroscopy are shown in FIGS. 4A (modified aptamer) and 4B (parent aptamer). The circular dichroism curve acquired before thermal melting is in blue and that obtained post-melt is green. A maximum positive ellipticity is observed at 270 nm consistent with a highly folded structure, probably consisting of A-form helices. The circular dichroism spectra for the modified aptamers are indistinguishable from circular dichroism spectra for the parent aptamer. The UV thermal melt data is shown in FIGS. 4C (modified aptamer) and 4D (parent aptamer). The melting temperature for parent aptamer and the modified aptamers is about 55° C.
# T1 sequence (Q04609 44-750 limits assumed): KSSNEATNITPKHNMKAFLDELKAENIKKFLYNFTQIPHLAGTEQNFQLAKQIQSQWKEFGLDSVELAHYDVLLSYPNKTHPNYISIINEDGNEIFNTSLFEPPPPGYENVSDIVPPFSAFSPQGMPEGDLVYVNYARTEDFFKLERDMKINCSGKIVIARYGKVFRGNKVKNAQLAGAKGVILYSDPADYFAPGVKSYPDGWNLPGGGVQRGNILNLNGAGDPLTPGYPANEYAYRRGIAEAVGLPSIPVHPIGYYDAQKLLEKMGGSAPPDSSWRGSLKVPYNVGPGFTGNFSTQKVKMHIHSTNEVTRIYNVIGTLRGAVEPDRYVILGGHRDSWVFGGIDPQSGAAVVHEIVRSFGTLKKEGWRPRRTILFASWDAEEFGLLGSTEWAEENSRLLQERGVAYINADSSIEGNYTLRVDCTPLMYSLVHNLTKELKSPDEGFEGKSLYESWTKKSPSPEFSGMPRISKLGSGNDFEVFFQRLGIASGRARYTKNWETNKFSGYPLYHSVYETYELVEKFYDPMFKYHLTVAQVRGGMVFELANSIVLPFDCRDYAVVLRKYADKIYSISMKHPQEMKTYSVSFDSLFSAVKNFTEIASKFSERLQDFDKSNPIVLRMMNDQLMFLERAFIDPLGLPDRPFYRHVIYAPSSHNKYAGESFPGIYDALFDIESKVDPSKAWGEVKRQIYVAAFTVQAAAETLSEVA
Substance,"cytotoxicity relative to monomeric fluoropyrimidines (5FU, FdU, FdUMP) [1]",sensitivity of PC3 cells (PC3 cells),times more potent than 5FU (PC3 cells; PC3 cells),"cytotoxicity relative to monomeric fluoropyrimidines (5FU, FdU, FdUMP) [2]",sensitivity of LNCaP cells (LNCaP cells),tolerability in vivo,times more potent than 5FU (DU145 PC cells; DU145 PC cells),"GI50 (DU145 PC cells; DU145 cells, GI50 value from the NCI 60 cell line screen, read-out: IC50 (the source's name))",uptake of multimer relative to prostate cancer cells (colon cancer cells),cytotoxicity relative to 5FU or FdU (prostate cancer cells [3]),drug concentrations at which cytotoxic towards prostate cancer cells (prostate cancer cells [3]),differential sensitivity between PC cells and normal prostatic epithelial cells [4],effect of phosphatase or nucleotidase inhibitor on cytotoxicity (prostate cancer cells [5]),uptake in multimeric form (prostate cancer cells [5]; prostate cancer cells),binding affinity for xPSM [6],stability of folded structure ([7]; 37° C.),melting temperature ([7]; UV thermal melt)
FdUMP[10],substantially more cytotoxic,highly sensitive,631 times,substantially more cytotoxic,highly sensitive,very well-tolerated,"1,585 time",5.01 nM,less efficient,substantially more cytotoxic,10 to 100 nM,large differential sensitivity,Neither inhibitor substantially reduced the cytotoxicity,efficiently take up,,,
"5′rGGGAGGACGAUGCGGAUCAGCCAUGUUUACGUCAC UCCUUGUCAAUCCUCAUCGGC-3′ (GGGAGGACGAUGCGGAUCAGCCAUGUUUACGUCACUCCUUGUCAAUCCUCAUCGGC; RNA, backbone not given here) [A10-3]",,,,,,,,,,,,,,,high affinity,stable at 37 °C,about 55 °C
